Measurements published in patent publication US20110230481A2, “DERIVATIVES OF TETRABROMOBENZIMIDAZOLE, A PROCESS FOR THE PREPARATION THEREOF, A PHARMACEUTICAL COMPOSITION COMPRISING THE SAME, A METHOD OF USING THE SAME, A METHOD FOR MODULATING OR REGULATING SERINE/THREONINE KINASES, AND SERINE/THREONINE KINASES MODULATING AGENT” (SELVITA S.A., priority 2009, published 2011).
In brackets after ≈: the same amount, converted by molar mass. Read-outs that look alike come from different tables or passages of the source.

Columns and labels:
CLK1 = CLK1 (Homo sapiens, UniProt P49759); test: Radiometric kinase assay (HotSpot)
Chain of CLK1 (P49759 whole entry): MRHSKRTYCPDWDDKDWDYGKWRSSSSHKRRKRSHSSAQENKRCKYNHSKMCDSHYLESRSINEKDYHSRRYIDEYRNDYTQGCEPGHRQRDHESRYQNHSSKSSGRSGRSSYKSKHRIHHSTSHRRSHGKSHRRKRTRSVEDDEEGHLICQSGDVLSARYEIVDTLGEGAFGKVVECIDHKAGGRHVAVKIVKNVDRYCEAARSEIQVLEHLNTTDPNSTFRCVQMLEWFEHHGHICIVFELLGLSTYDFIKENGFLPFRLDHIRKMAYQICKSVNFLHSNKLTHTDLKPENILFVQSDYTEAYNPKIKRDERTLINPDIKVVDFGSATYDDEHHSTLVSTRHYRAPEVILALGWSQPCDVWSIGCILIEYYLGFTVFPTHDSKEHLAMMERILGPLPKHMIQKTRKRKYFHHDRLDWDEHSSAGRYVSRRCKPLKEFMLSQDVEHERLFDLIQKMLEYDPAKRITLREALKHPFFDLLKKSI

ADCK3 = ADCK3 (Homo sapiens, UniProt Q8NI60); test: KINOMEscan Max; format: binding
Chain of ADCK3 (Q8NI60 163-647): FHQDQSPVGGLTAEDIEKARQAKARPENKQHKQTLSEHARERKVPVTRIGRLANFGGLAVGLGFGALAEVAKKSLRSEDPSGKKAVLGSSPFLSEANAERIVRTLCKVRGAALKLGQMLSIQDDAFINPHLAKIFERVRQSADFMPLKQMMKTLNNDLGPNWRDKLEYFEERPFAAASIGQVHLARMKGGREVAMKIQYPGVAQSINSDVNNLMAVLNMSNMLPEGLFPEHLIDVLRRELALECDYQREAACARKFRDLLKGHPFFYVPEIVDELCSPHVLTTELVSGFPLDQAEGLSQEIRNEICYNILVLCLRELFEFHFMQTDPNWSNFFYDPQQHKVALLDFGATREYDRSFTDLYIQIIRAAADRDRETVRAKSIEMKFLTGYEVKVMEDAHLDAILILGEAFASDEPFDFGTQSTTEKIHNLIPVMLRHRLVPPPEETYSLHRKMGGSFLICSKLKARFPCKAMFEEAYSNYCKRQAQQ
Experimental: (§1) Kinase panel profiling was performed at Ambit Kinomescan (http://www.ambitbio.com/technology/) using the “KINOMEscan™ Max” assay platform, a high-throughput method for screening small molecule compounds against large numbers of human kinases. KINOMEscan™ is based on a competition binding assay that quantitatively measures the ability of a compound to compete with an immobilized, active-site directed ligand. The assay is performed by combining three components: DNA-tagged kinase; immobilized ligand; and a test compound. The ability of the test compound to compete with the immobilized ligand is measured via quantitative PCR of the DNA tag. For a description of Ambit's assay protocol, see Fabian et al. A small molecule-kinase interaction map for clinical kinase inhibitors. Nat. Biotechnol. 23, 329-336 (2005).

HIPK3 = target: T1, HIPK3 (Homo sapiens, UniProt Q9H422); test: KINOMEscan Max; format: binding
T1 construct: DNA tag (qPCR read-out); purchased Ambit Kinomescan
T1 sequence (Q9H422 whole entry): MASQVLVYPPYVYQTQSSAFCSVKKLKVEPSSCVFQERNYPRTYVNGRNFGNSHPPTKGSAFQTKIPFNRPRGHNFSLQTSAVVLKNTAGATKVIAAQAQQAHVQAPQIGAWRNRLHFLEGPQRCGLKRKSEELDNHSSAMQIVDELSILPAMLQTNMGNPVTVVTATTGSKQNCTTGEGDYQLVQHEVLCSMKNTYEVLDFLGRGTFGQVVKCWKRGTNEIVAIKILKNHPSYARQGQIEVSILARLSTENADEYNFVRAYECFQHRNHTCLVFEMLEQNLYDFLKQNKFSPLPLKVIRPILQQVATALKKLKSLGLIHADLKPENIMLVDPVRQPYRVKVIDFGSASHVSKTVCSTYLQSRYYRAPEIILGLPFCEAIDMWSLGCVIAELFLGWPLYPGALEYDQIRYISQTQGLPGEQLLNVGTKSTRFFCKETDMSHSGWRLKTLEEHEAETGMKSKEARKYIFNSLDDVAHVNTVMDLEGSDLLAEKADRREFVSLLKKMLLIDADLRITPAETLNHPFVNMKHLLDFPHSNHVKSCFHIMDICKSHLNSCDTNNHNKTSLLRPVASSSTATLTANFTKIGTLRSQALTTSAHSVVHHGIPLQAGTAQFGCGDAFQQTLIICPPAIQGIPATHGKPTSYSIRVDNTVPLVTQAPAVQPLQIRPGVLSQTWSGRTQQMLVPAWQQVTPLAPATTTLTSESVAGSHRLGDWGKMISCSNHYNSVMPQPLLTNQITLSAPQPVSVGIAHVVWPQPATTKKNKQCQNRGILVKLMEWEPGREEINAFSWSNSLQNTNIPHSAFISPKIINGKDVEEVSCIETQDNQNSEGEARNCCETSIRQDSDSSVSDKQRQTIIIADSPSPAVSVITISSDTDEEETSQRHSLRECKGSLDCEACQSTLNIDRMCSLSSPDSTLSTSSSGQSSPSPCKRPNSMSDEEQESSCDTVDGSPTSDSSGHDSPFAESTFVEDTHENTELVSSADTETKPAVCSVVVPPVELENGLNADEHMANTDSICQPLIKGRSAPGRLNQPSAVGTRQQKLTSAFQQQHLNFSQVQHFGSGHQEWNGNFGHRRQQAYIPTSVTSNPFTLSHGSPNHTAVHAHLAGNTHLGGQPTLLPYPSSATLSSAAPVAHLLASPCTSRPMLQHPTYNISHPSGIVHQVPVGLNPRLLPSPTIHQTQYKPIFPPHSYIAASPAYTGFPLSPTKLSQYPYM
Experimental: as §1

TEC = target: T2, TEC (Homo sapiens, UniProt P42680); test: KINOMEscan Max; format: binding
T2 construct: purchased Ambit Kinomescan (contract screening service)
T2 sequence (P42680 whole entry): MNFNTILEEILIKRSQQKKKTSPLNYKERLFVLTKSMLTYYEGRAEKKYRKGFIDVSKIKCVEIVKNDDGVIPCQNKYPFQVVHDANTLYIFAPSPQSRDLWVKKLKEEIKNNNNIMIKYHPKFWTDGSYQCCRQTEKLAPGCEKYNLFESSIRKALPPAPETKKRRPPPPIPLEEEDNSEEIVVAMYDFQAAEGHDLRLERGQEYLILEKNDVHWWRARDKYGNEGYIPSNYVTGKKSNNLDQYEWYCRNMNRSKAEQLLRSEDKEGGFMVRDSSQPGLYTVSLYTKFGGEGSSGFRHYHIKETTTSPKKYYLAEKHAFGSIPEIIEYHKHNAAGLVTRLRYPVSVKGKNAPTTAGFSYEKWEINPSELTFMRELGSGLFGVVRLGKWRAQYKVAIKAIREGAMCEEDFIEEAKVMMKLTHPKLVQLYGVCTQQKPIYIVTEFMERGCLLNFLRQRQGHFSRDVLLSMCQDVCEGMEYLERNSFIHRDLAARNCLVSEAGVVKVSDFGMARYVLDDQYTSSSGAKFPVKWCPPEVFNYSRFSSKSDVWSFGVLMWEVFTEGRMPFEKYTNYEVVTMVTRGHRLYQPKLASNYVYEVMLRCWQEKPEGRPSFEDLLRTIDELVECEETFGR
Experimental: as §1

MKNK1 = MKNK1 (Homo sapiens, UniProt Q9BUB5); test: KINOMEscan Max; format: binding
Chain of MKNK1 (Q9BUB5 whole entry): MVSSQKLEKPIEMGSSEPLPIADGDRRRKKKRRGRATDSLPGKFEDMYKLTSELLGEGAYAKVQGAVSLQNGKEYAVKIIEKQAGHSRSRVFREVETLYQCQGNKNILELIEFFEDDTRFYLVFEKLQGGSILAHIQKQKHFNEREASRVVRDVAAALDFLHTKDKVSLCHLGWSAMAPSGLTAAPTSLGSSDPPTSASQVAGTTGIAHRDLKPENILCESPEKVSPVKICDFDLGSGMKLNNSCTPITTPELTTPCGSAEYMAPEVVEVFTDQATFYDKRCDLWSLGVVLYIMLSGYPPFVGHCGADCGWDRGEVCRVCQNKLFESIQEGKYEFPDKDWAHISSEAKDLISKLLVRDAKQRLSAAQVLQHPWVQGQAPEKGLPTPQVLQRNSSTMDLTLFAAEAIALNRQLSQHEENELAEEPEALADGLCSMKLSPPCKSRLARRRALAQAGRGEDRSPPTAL
Experimental: as §1

Solubility in pH 7.4 = conditions: phosphate buffer
[1] = system: human breast adenocarcinoma MCF7 cells; test: Growth inhibition test (MTS); format: cell-based; conditions: MCF-7; 72 hours
Experimental: (§2) Two thousand cells of human breast adenocarcinoma MCF7 were inoculated into each well of a 96-well microplate (manufactured by Corning Corp.), and using DMEM medium (culture medium) containing 10% fetal calf serum (FCS). The same day, a dimethyl sulfoxide (DMSO) solution of each test compound prepared in a concentration of 10 mmol/L was further diluted with DMSO to the desired concentrations (0.1, 0.5, 1, 2.5, 5 and 10 micromol/L), and the diluted solution was added to each well. The individual wells were further cultured in 5% carbon dioxide at 37° C. for 72 hours. After completion of the culture, 10 μl MTS (3-(4,5-Dimethyl-2-thiazolyl)-5-(carboxymethoxyphenyl)-2-(4-sulfophenyl)-2H-tetrazolium, inner salt assay (CellTiter96® AQueous One Solution Cell Proliferation Assay, Promega) was added to each well, and culturing was performed in 5% carbon dioxide at 37° C. for 2 hours. Using a microplate spectrophotometer (Synergy 2 multi-mode microplate reader (BioTek)), the absorbance of each well was measured at 490 nm. The value for cells not incorporated with a test compound was designated as 100%. By comparing these values with the absorbance difference obtained at the well in which each test compound was added, the cell viability (% viability) after treatment with the test compound was calculated.

neoplastic cell lines = test: MTS cytotoxicity, panel of cancer cell lines; format: cell-based, human; conditions: majority of the tested cancer cell lines; read-out: general cytotoxic activity (compound concentration that results in death of 50% of the cell)
Experimental: as §2, with “Ten” for “Two”, “chronic myelocytic leukemia K562” for “breast adenocarcinoma MCF7”, “Corp.)” for “Corp.), and”, “Iscove's MDM” for “DMEM”
as §2, with “prostate” for “breast”, “PC3” for “MCF7”, “F12K (Ham's F12:[…] 1:1)” for “DMEM”, “The same day, a dimethyl sulfoxide (DMSO) solution of each test compound prepared in a concentration of 10 mmol/L was further diluted with DMSO to the desired concentrations (0.1, 0.5, 1, 2.5, 5 and 10 micromol/L), and the diluted solution was added to each well. The individual wells were further cultured in 5% carbon dioxide at 37° C. for 72 hours.” left out
as §2, with “prostate carcinoma DU145” for “breast adenocarcinoma MCF7”, “The same day, a dimethyl sulfoxide (DMSO) solution of each test compound prepared in a concentration of 10 mmol/L was further diluted with DMSO to the desired concentrations (0.1, 0.5, 1, 2.5, 5 and 10 micromol/L), and the diluted solution was added to each well. The individual wells were further cultured in 5% carbon dioxide at 37° C. for 72 hours.” left out, “innersalt” for “inner salt”, “calculated. […]” for “calculated.”

solubility at 24 h (Solubility in pH 7.4) [µM] | SMILES | Cytotoxicity in MTS assay (ED50) [1] [µM] | EC50 (neoplastic cell lines) [µM] | other results
 | Brc1c(Br)c(Br)c2[nH]c(NCCN3CCCCC3)nc2c1Br [Compound 13, 4,5,6,7-tetrabromo-N-(2-(piperidin-1-yl)ethyl)-1H-benzo[d]imidazol-2-amine] |  |  | IC50 (CLK1): 594 nM
31 (≈ 16.9 µg/mL) | Brc1c(Br)c(Br)c2[nH]c(NCCN3CCCC3)nc2c1Br [Compound 14, 4,5,6,7-tetrabromo-N-(2-(pyrrolidin-1-yl)ethyl)-1H-benzo[d]imidazol-2-amine] |  |  | 
23 (≈ 12.9 µg/mL) | Brc1c(Br)c(Br)c2[nH]c(NCCN3CCOCC3)nc2c1Br [Compound 16, 4,5,6,7-tetrabromo-N-(2-morpholinoethyl)-1H-benzo[d]imidazol-2-amine] | >10 |  | 
< 10 | CN1CCN(c2nc3c(Br)c(Br)c(Br)c(Br)c3[nH]2)CC1 [Compound 21, 4,5,6,7-tetrabromo-2-(4-methylpiperazin-1-yl)-1H-benzo[d]imidazole] | >10 |  | 
 | Brc1c(Br)c(Br)c2c(Br)n[nH]c2c1Br [Compound K64, reference compound] |  | > 10 | 
 | CN(C)c1nc2c(Br)c(Br)c(Br)c(Br)c2n1CC(=O)O [Compound K66, reference compound] |  | > 10 | 
 | CN(C)c1nc2c(Br)c(Br)c(Br)c(Br)c2[nH]1 [DMAT, reference compound] | >10 | > 10 | IC50 (CLK1; read-out: Inhibitory activity (IC50 in nM) in radiometric cell free assay, CLK1, ATP 1 μM, Myelin Basic Protein 10 μM): 211 nM
 | Brc1c(Br)c(Br)c2[nH]nnc2c1Br [TBB, reference compound] |  | > 10 | 
 | Brc1c(Br)c(Br)c2[nH]cnc2c1Br [TBI, reference compound] |  | > 10 | 

SMILES | solubility at 24 h (Solubility in pH 7.4) [µM] | Cytotoxicity in MTS assay (ED50) [1] [µM] | EC50 (neoplastic cell lines) [µM] | other results
NCCCNc1nc2c(Br)c(Br)c(Br)c(Br)c2[nH]1 [Compound 11, N-(3-aminopropyl)-4,5,6,7-tetrabromo-1H-benzo[d]imidazol-2-amine] | 370 (≈ 187 µg/mL) | 5.34 |  | IC50 (CLK1): 177 nM; remaining binding at 1 µM (ADCK3): 76%; remaining binding at 1 µM (HIPK3): 1.5%; remaining binding at 1 µM (TEC): 100%; remaining binding at 1 µM (MKNK1): 100%
